Assay results from PubChem BioAssay (NCI).
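These data come from cells grown in 96-well plates and exposed to compound for 48 hours at five concentrations. GI50 is the concentration that inhibits growth by half. TGI is the concentration that stops growth completely.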

Assays:
Assay in all cases: NCI anticancer screen, dose series, 48 h
RXF 393 renal = system: RXF 393 renal
OVCAR-4 ovarian = system: OVCAR-4 ovarian
OVCAR-8 ovarian = system: OVCAR-8 ovarian
HS 578T breast = system: HS 578T breast
PC-3 prostate = system: PC-3 prostate
OVCAR-3 ovarian = system: OVCAR-3 ovarian
COLO 205 colon = system: COLO 205 colon
786-0 renal = system: 786-0 renal
HCT-116 colon = system: HCT-116 colon
SW-620 colon = system: SW-620 colon
MOLT-4 leukemia = system: MOLT-4 leukemia
MDA-MB-231 breast = system: MDA-MB-231 breast
BT-549 breast = system: BT-549 breast
CCRF-CEM leukemia = system: CCRF-CEM leukemia
SK-MEL-5 melanoma = system: SK-MEL-5 melanoma
ACHN renal = system: ACHN renal
HT29 colon = system: HT29 colon
SF-539 CNS = system: SF-539 CNS
UACC-257 melanoma = system: UACC-257 melanoma
U251 CNS = system: U251 CNS
NCI-H522 lung = system: NCI-H522 lung
SF-268 CNS = system: SF-268 CNS
T-47D breast = system: T-47D breast
UACC-62 melanoma = system: UACC-62 melanoma
UO-31 renal = system: UO-31 renal
M14 melanoma = system: M14 melanoma
TK-10 renal = system: TK-10 renal
SK-MEL-28 melanoma = system: SK-MEL-28 melanoma
MDA-MB-435 = system: MDA-MB-435
HOP-92 NSCLC = system: HOP-92 NSCLC
SF-295 CNS = system: SF-295 CNS
RPMI-8226 leukemia = system: RPMI-8226 leukemia
SR leukemia = system: SR leukemia
DU-145 prostate = system: DU-145 prostate
HOP-62 NSCLC = system: HOP-62 NSCLC
NCI-H23 lung = system: NCI-H23 lung
HCC-2998 colon = system: HCC-2998 colon
MCF7 breast = system: MCF7 breast
NCI-H226 lung = system: NCI-H226 lung
IGROV1 ovarian = system: IGROV1 ovarian
SNB-19 CNS = system: SNB-19 CNS
NCI-H460 lung = system: NCI-H460 lung
SK-MEL-2 melanoma = system: SK-MEL-2 melanoma
KM12 colon = system: KM12 colon
HL-60(TB) leukemia = system: HL-60(TB) leukemia
NCI/ADR-RES ovarian = system: NCI/ADR-RES ovarian
SNB-75 CNS = system: SNB-75 CNS
SN12C renal = system: SN12C renal
SK-OV-3 ovarian = system: SK-OV-3 ovarian
HCT-15 colon = system: HCT-15 colon
LOX IMVI melanoma = system: LOX IMVI melanoma
OVCAR-5 ovarian = system: OVCAR-5 ovarian
A549 NSCLC = system: A549 NSCLC
K-562 leukemia = system: K-562 leukemia
CAKI-1 renal = system: CAKI-1 renal

In the case of `Nc1ncnc2c1ncn2C1SC(CO)C(O)C1O` (stereo not given), the GI50 (RXF 393 renal) is reported as 80.6 µM, the TGI (RXF 393 renal) is reported as > 100 µM and the GI50 (OVCAR-4 ovarian) is reported as 34.6 µM. For the same molecule, the TGI (OVCAR-4 ovarian) was > 100 µM, the GI50 (OVCAR-8 ovarian) was 4 µM and the TGI (OVCAR-8 ovarian) was 23.6 µM. For the same molecule, the GI50 (HS 578T breast) was 70.5 µM, the TGI (HS 578T breast) was > 100 µM and the GI50 (PC-3 prostate) was 3.72 µM. The TGI (PC-3 prostate) was 33.1 µM, the GI50 (OVCAR-3 ovarian) was 24.5 µM and the TGI (OVCAR-3 ovarian) was 58.3 µM. The GI50 (COLO 205 colon) was 33.3 µM, the TGI (COLO 205 colon) was > 100 µM and the GI50 (786-0 renal) was 16.5 µM. The TGI (786-0 renal) was 37.3 µM, the GI50 (HCT-116 colon) was 13.5 µM and the TGI (HCT-116 colon) was 50.3 µM. For the same molecule, the GI50 (SW-620 colon) was 17.5 µM, the TGI (SW-620 colon) was 77.2 µM and the GI50 (MOLT-4 leukemia) was > 100 µM. For the same molecule, the TGI (MOLT-4 leukemia) was > 100 µM, the GI50 (MDA-MB-231 breast) was 10.9 µM and the TGI (MDA-MB-231 breast) was 34.8 µM. The GI50 (BT-549 breast) was 12.7 µM, the TGI (BT-549 breast) was 43.2 µM and the GI50 (CCRF-CEM leukemia) was > 100 µM. For the same molecule, the TGI (CCRF-CEM leukemia) was > 100 µM, the GI50 (SK-MEL-5 melanoma) was 74.4 µM and the TGI (SK-MEL-5 melanoma) was > 100 µM. The GI50 (ACHN renal) was 31.8 µM, the TGI (ACHN renal) was > 100 µM and the GI50 (HT29 colon) was 10.7 µM. For the same molecule, the TGI (HT29 colon) was 42.4 µM, the GI50 (SF-539 CNS) was 19.7 µM and the TGI (SF-539 CNS) was 50.1 µM. For the same molecule, the GI50 (UACC-257 melanoma) was > 100 µM, the TGI (UACC-257 melanoma) was > 100 µM and the GI50 (U251 CNS) was 27 µM. For the same molecule, the TGI (U251 CNS) was > 100 µM, the GI50 (NCI-H522 lung) was 40 µM and the TGI (NCI-H522 lung) was > 100 µM. It also gave a GI50 (SF-268 CNS) of 27.1 µM, a TGI (SF-268 CNS) of 96.6 µM and a GI50 (T-47D breast) of 5.24 µM. The TGI (T-47D breast) was 26 µM, the GI50 (UACC-62 melanoma) was > 100 µM and the TGI (UACC-62 melanoma) was > 100 µM. For the same molecule, the GI50 (UO-31 renal) was 18.8 µM, the TGI (UO-31 renal) was 41.9 µM and the GI50 (M14 melanoma) was 21 µM. The TGI (M14 melanoma) was 55.6 µM, the GI50 (TK-10 renal) was 60.9 µM and the TGI (TK-10 renal) was > 100 µM. The GI50 (SK-MEL-28 melanoma) was 56.5 µM, the TGI (SK-MEL-28 melanoma) was > 100 µM and the GI50 (MDA-MB-435) was 18.1 µM. The TGI (MDA-MB-435) was 50.2 µM, the GI50 (HOP-92 NSCLC) was 13.6 µM and the TGI (HOP-92 NSCLC) was 52.4 µM. The GI50 (SF-295 CNS) was 20.1 µM, the TGI (SF-295 CNS) was 52.6 µM and the GI50 (RPMI-8226 leukemia) was 44.1 µM. For the same molecule, the TGI (RPMI-8226 leukemia) was > 100 µM, the GI50 (SR leukemia) was 12.5 µM and the TGI (SR leukemia) was 45.2 µM. It also gave a GI50 (DU-145 prostate) of 6.93 µM, a TGI (DU-145 prostate) of 26.7 µM and a GI50 (HOP-62 NSCLC) of 24.9 µM. The TGI (HOP-62 NSCLC) was 91.2 µM, the GI50 (NCI-H23 lung) was 35.1 µM and the TGI (NCI-H23 lung) was > 100 µM. For the same molecule, the GI50 (HCC-2998 colon) was 11.9 µM, the TGI (HCC-2998 colon) was 34.5 µM and the GI50 (MCF7 breast) was 3.21 µM. For the same molecule, the TGI (MCF7 breast) was 31.6 µM, the GI50 (NCI-H226 lung) was 66.5 µM and the TGI (NCI-H226 lung) was > 100 µM. For the same molecule, the GI50 (IGROV1 ovarian) was > 100 µM, the TGI (IGROV1 ovarian) was > 100 µM and the GI50 (SNB-19 CNS) was 26 µM. It also gave a TGI (SNB-19 CNS) of 82.8 µM, a GI50 (NCI-H460 lung) of 7.88 µM and a TGI (NCI-H460 lung) of 37.9 µM. For the same molecule, the GI50 (SK-MEL-2 melanoma) was 78.8 µM, the TGI (SK-MEL-2 melanoma) was > 100 µM and the GI50 (KM12 colon) was 23 µM. The TGI (KM12 colon) was > 100 µM, the GI50 (HL-60(TB) leukemia) was 30.3 µM and the TGI (HL-60(TB) leukemia) was 76.2 µM. For the same molecule, the GI50 (NCI/ADR-RES ovarian) was 13.5 µM, the TGI (NCI/ADR-RES ovarian) was 52.1 µM and the GI50 (SNB-75 CNS) was 16.8 µM. It also gave a TGI (SNB-75 CNS) of 46.3 µM, a GI50 (SN12C renal) of 19.3 µM and a TGI (SN12C renal) of 62.3 µM. For the same molecule, the GI50 (SK-OV-3 ovarian) was 17.3 µM, the TGI (SK-OV-3 ovarian) was 59.6 µM and the GI50 (HCT-15 colon) was 3.81 µM. It also gave a TGI (HCT-15 colon) of 31.8 µM, a GI50 (LOX IMVI melanoma) of 18.5 µM and a TGI (LOX IMVI melanoma) of 48.4 µM. For the same molecule, the GI50 (OVCAR-5 ovarian) was > 100 µM, the TGI (OVCAR-5 ovarian) was > 100 µM and the GI50 (A549 NSCLC) was 26.6 µM. The TGI (A549 NSCLC) was 73.4 µM, the GI50 (K-562 leukemia) was 16.9 µM and the TGI (K-562 leukemia) was > 100 µM. The GI50 (CAKI-1 renal) was 29.5 µM and the TGI (CAKI-1 renal) was > 100 µM.
